What is called IC50 is the concentration that gives 50% inhibition.

The experiment relates to mino cells. Description: Activity test in Mino cells (CCK8 proliferation inhibition). The note with it: Homo sapiens, 72 h, 3 days, read-out: Cell inhibition IC50. It is filed as cell-based. On the procedure: Cell culture: mino cells (culture conditions: RPMI1640 medium+15% FBS, 37° C., 5% CO2). Cell plating: The cells subcultured into the logarithmic growth phase were collected and transferred into a centrifuge tube, and centrifuged at 800 rpm for 5 min. The cells were resuspended in complete medium and counted. The cells were diluted and adjusted to a final concentration of 200000 cells/mL. The cells were then seeded into a 96-well plate with 100 μL per well. Cell administration: Each group of drug solutions was added into the 96-well plate, 100 μL per well, n=3 for each drug concentration. Meanwhile, negative wells (n=6) and blank wells (n=3) were set up. The 96-well plate was incubated in the incubator for further 3 days. CCK8 reagent was added to the 96-well plate, 20 μL per well, and then the plate was placed in the incubator for further 4 h. The absorbance of the solution was measured at a wavelength of 450 nm using an enzyme reader. The proliferation inhibition rate was calculated and the half inhibitory concentration IC50 value was calculated.
As for `COc1ccc(F)cc1C(=O)NCc1ccc(-c2nc(-c3ccc(N4CCN(CC5CCN(c6ccc(N7CCC(=O)NC7=O)c(C)c6)CC5)CC4)nc3)n3ccnc(N)c23)cc1` [Compound I-30], the IC50 is below 50 nM.

For `COc1ccc(F)cc1C(=O)NCc1ccc(-c2nc(-c3ccc(C4=CCN(CC5CCN(c6ccc(N7CCC(=O)NC7=O)c(C)c6)CC5)CC4)cc3)n3ccnc(N)c23)cc1` [Compound I-50], the IC50 is below 25 nM.

Regarding `COc1ccc(F)cc1C(=O)NCc1ccc(-c2nn(-c3ccc(N4CCN(CC5CCN(c6ccc(N7CCC(=O)NC7=O)c(C)c6)CC5)CC4)cc3)c3ncnc(N)c23)cc1` [Compound I-9], the IC50 was below 25 nM.

As to `COc1ccc(F)cc1C(=O)NCc1ccc(-c2nn(-c3ccc(N4CCN(CC5CCN(c6ccc7c(c6)CN(C6CCC(=O)NC6=O)C7=O)CC5)CC4)nc3)c3ncnc(N)c23)cc1` (centres unmarked) [II-1], the IC50 turned out to be 4 nM.

For `COc1ccc(F)cc1C(=O)NCc1ccc(-c2nn(-c3ccc(N4CCN(CC5CCN(c6ccc(N7CCC(=O)NC7=O)c(C)c6)CC5)CC4)nc3)c3ncnc(N)c23)c(F)c1F` [Compound I-43], the IC50 is below 50 nM.

With `Nc1ncnc2c1c(-c1ccc(Oc3ccccc3)cc1)nn2-c1ccc(N2CCN(C[C@@H]3CCCC[C@H]3CN3CCN(c4ccc5c(c4)CN(C4CCC(=O)NC4=O)C5=O)CC3)CC2)nc1` (stereo partly drawn) [III-19, 3-(5-(4-(((1R,2R)-2-((4-(5-(4-amino-3-(4-phenoxyphenyl)-1H-pyrazolo[3,4-d]pyrimidin-1-yl)pyridin-2-yl)piperazin-1-yl)methyl)cyclohexyl)methyl)piperazin-1-yl)-1-oxoisoindolin-2-yl)piperidine-2,6-dione], the IC50 was below 100 nM.

In the case of `COc1ccc(F)cc1C(=O)NCc1ccc(-c2nc(-c3ccc(N4CCN(CC5CCN(c6ccc(N7CCC(=O)NC7=O)c(C)c6)CC5)CC4)cc3)n3ccnc(N)c23)cc1F` [Compound I-45], the IC50 was below 50 nM.

`COc1ccc(F)cc1C(=O)NCc1ccc(-n2c(=O)n(-c3ccc(N4CCN(CC5CCN(c6ccc(N7CCC(=O)NC7=O)c(C)c6)CC5)CC4)nc3)c3ccnc(N)c32)cc1` [Compound I-52, N-(4-(4-amino-1-(6-(4-((1-(4-(2,4-dioxotetrahydropyrimidin-1(2H)-yl)-3-methylphenyl)piperidin-4-yl)methyl)piperazin-1-yl)pyridin-3-yl)-2-oxo-1,2-dihydro-3H-imidazo[4,5-c]pyridin-3-yl)benzyl)-5-fluoro-2-methoxybenzamide]: the IC50 was below 50 nM.

Take `COc1ccc(F)cc1C(=O)NCc1ccc(-c2nn(-c3ccc(C4CCN(CC5CCN(c6ccc(N7CCC(=O)NC7=O)c(C)c6)CC5)CC4)nc3)c(N)c2C(N)=O)cc1` [Compound I-12]: the IC50 was below 25 nM.

As to `COc1ccc(F)cc1C(=O)NCc1ccc(-c2nn(-c3ccc(N4CCN(CC5CCN(c6ccc(N7CCC(=O)NC7=O)c(C)c6)CC5)C[C@H]4C)nc3)c3ncnc(N)c23)cc1` [Compound I-41], the IC50 is below 25 nM.

With `COc1ccc(F)cc1C(=O)NCc1ccc(-n2c(=O)n(-c3ccc(N4CCN(CC5CCN(c6ccc7c(c6)CN(C6CCC(=O)NC6=O)C7=O)CC5)CC4)cc3)c3ccnc(N)c32)cc1` (centres unmarked) [II-24, N-(4-(4-amino-1-(4-(-4-((1-(2-(2,6-dioxopiperidin-3-yl)-1-oxoisoindol-5-yl)piperidin-4-yl)methyl)piperazin-1-yl)phenyl)-2-oxo-1,2-dihydro-3H-imidazo[4,5-c]pyridin-3-yl)benzyl)-5-fluoro-2-methoxybenzamide], the IC50 is below 50 nM.

For `COc1ccc(F)cc1C(=O)NCc1ccc(-c2nn(-c3ccc(N4CCN(CC5CCN(c6ccc(N7CCC(=O)NC7=O)c(C)c6)CC5)CC4)cc3)c3ccnc(N)c23)cc1` [Compound I-46], the IC50 is below 100 nM.

On to `COc1ccc(F)cc1C(=O)NCc1ccc(-c2nc(-c3ccc(N4CCN(CC5CCN(c6ccc(N7CCC(=O)NC7=O)c(C)c6)CC5)CC4)cc3)n3ccnc(N)c23)c(F)c1` [Compound I-47], for which the IC50 was below 25 nM.

With `Nc1ncnc2c1c(-c1ccc(Oc3ccccc3)cc1)nn2-c1ccc(N2CCC(CN3CCN(c4ccc5c(c4)C(=O)N(C4CCC(=O)NC4=O)C5=O)CC3)CC2)nc1` (centres unmarked) [II-37, 5-(4-((1-(5-(4-amino-3-(4-phenoxyphenyl)-1H-pyrazolo[3,4-d]pyrimidin-1-yl)pyridin-2-yl)piperidin-4-yl)methyl)piperazin-1-yl)-2-(2,6-dioxopiperidin-3-yl) isoindoline-1,3-dione], the IC50 was below 25 nM.

With `COc1ccc(F)cc1C(=O)NCc1ccc(-c2nn(-c3ccc(N4CCN(CC5CCN(c6ccc7c(c6)C(=O)N(C6CCC(=O)NC6=O)C7)CC5)CC4)nc3)c(N)c2C(N)=O)cc1` (centres unmarked) [II-34, 5-amino-1-(6-(4-((1-(2-(2,6-dioxopiperidin-3-yl)-3-oxoisoindolin-5-yl)piperidin-4-yl)methyl)piperazin-1-yl)pyridin-3-yl)-4-(((5-fluoro-2-methoxybenzamido)methyl)phenyl)-1H-pyrazole-4-carboxamide], the IC50 was below 25 nM.

As to `COc1ccc(F)cc1C(=O)NCc1ccc(-c2nn(-c3ccc(N4CCN(CC5CCN(c6ccc(N7CCC(=O)NC7=O)c(C)c6)CC5)CC4)cc3)c(N)c2C(N)=O)cc1` [Compound I-8], the IC50 is below 25 nM.

`COc1ccc(F)cc1C(=O)NCc1ccc(-c2nn(-c3ccc(N4CCN(CC5CCN(c6ccc7c(c6)C(=O)N(C6CCC(=O)NC6=O)C7=O)CC5)CC4)nc3)c3ncnc(N)c23)cc1` (centres unmarked) [II-3, N-(4-4-amino-1-(6-(4-(1-(2,6-dioxopiperidin-3-yl)-1,3-dioxoisoindolin-5-ylpiperidin-4-yl)methylpiperazin-1-ylpyridin-3-yl)-1H-pyrazolo[3,4-d]pyrimidin-3-yl)benzyl)-5-fluoro-2-methoxybenzamide]: the IC50 came to 17 nM.

As to `COc1ccc(F)cc1C(=O)NCc1ccc(-c2nn(-c3ccc(N4CCN(CC5CCN(c6ccc7c(c6)C(=O)N(C6CCC(=O)NC6=O)C7=O)CC5)CC4)nc3)c3ncnc(N)c23)cc1C` (centres unmarked) [II-6, N-(4-(4-amino-1-(6-(4-((1-(2-(2,6-dioxopiperidin-3-yl)-1,3-dioxoisoindol-5-yl)piperidin-4-yl)methyl)piperazin-1-yl)pyridin-3-yl)-1H-pyrazolo[3,4-d]pyrimidin-3-yl)-2-methylbenzyl)-5-fluoro-2-methoxybenzamide], the IC50 was 21 nM.

Consider `COc1ccc(F)cc1C(=O)NCc1ccc(-c2nn(-c3ccc(N4CCN(CC5CCN(c6ccc(N7CCC(=O)NC7=O)cc6)CC5)CC4)nc3)c3ncnc(N)c23)cc1` [Compound I-3, N-(4-(4-amino-1-(6-(4-((1-(4-(2,4-dioxotetrahydropyrimidin-1(2H)-yl)phenyl)piperidin-4-yl)methyl)piperazin-1-yl)pyridin-3-yl)-1H-pyrazolo[3,4-d]pyrimidin-3-yl)benzyl)-5-fluoro-2-methoxybenzamide], for which the IC50 was found to be 16 nM.

As to `Cc1cc(N2CCC(CN3CCN(c4ccc(-c5nc(-c6ccc(Oc7ccccc7)cc6)c6c(N)nccn56)cn4)CC3)CC2)ccc1N1CCC(=O)NC1=O` [Compound I-54, 1-(4-(4-((4-(5-(8-amino-1-(4-phenoxyphenyl)imidazo[1,5-a]pyrazin-3-yl)pyridin-2-yl)piperazin-1-yl)methyl)piperidin-1-yl)-2-methylphenyl)dihydropyrimidine-2,4(1H,3H)-dione], the IC50 is below 50 nM.
